Assay results taken from article PMC11571015, “Hybrids of Membrane-Translocating Antimicrobial Peptides Show Enhanced Activity through Membrane Permeabilization” (ACS Medicinal Chemistry Letters, 2024).
≈ marks a conversion by molar mass, not a printed value.

Columns and labels:
[1] = system: E. coli; format: cell-based, E. coli (Top10 Strain); details: median MIC; microbroth dilution, 1:2 serial dilution 18.2 to 1.8x10-2 μM, 4 × 10^6 CFU/mL, 1 h 37°C in wash buffer pH 7.4, then TSB overnight (18-24 h), OD600; triplicate per plate; mixture: each peptide at the reported concentration
Experimental: (§1) Supplemental Information for Trevellin et al.
(§2) Peptide design and preparation […]
(§3) synthesized by GenScript (Piscataway, NJ) at >95% purity determined by HPLC and dissolved in DI water. Concentrations were measured by triplicate tryptophan absorbance readings at 280 nm (ε=5700 M–1cm–1, l=1 cm) using a ThermoScientific NanoDrop 2000 (Waltham, MA). Buforin II (BF2) included an F10W mutation used in many previous studies1-5 to allow for concentration measurements.
(§4) Bacteria included E. coli (Top10 Strain, Invitrogen/ThermoFisher) containing a plasmid for ampicillin resistance (Novagen) and/or B. subtilis (ATCC #6051). Bacterial growth was performed in TSB (trypticase soy broth) prepared at 3% w/v (30 g of media in 1 L) from BD Difco unless otherwise noted. Overnight cultures were picked from petri dishes or frozen stock and grown for 14-16 hours at 37 °C in TSB with shaking. E. coli overnight cultures were incubated with 25 μg/mL ampicillin. The overnight cultures were then diluted 1:100 in 25 mL TSB and incubated at 37 °C with shaking for 2.5 h. The culture was pelleted via centrifugation at 1500×g for 10 min at room temperature and resuspended in sterile cold wash buffer (10 mM sodium phosphate buffer and 10 mM sodium chloride, pH 7.4). These resuspended bacteria were then used for radial diffusion, microbroth dilution, and propidium iodide assays. […]
(§5) Microbroth dilution assay
(§6) Microbroth dilution assays were used to determine the minimum inhibitory concentration (MIC) of each peptide for E. coli and B. subtilis (ATCC #6051). A 1:2 serial dilution was prepared for a peptide across the top row of a 96-well plate. 100 μL of bacterial suspension (4 × 10^6 CFU/mL, diluted in sterile wash buffer, 10 mM sodium phosphate buffer and 10 mM sodium chloride, pH 7.4) and 10 μL of peptide were mixed to each well in subsequent rows of the plate. The 11 effective peptide concentrations ranged from 18.2 μM to 1.8x10-2 μM, with DI water used as a control, and each concentration was tested in triplicate per plate. After the bacteria and peptide mixtures were incubated in plates at 37°C for 1 hour, 100 μL of 6% w/v TSB was added to each well. For wells containing E. coli, ampicillin was added at a final concentration of 25 µg/ml. The plate was then incubated overnight (18-24 h) at 37°C. After incubation, OD600nm were measured using the SpectraMax M3 microplate reader (Molecular Devices). […]
(§7) relative permeability = F5/F0
(§8) Each peptide was tested with bacteria grown from at least three distinct overnight […]
(§9) The MTS assay is a colorimetric viability assay for mammalian cells. HEK 293 cells (ATCC CRL-1573) were grown in complete growth medium (EMEM, 10% fetal bovine serum, 1% penicillin-streptomycin). Cells were cultured in a T-75 maintenance flask, fed with fresh media every 1-2 days, and passaged approximately every 5-7 days once cells reached 70-90% confluence. During passaging, HEK 293 cells were plated in a 96-well plate at 20,000 cells/well and incubated for 4-6 hours (37 °C, 95% humidity, 5% CO2). Each column of cells (8 replicates) was then incubated overnight with 18.2 µM peptide or a control. After incubation, media was aspirated and refreshed for each well, […]

[2] = system: B. subtilis; format: cell-based, B. subtilis (ATCC #6051); details: 1 h, pH 7.4
Experimental: as §1, §2, §3, §4, §5, §6, §7, §8, §9

## CC(C)C[C@H](NC(=O)CNC(=O)[C@H](C)NC(=O)[C@H](CCCNC(=N)N)NC(=O)[C@H](CO)NC(=O)[C@H](CO)NC(=O)[C@H](CCCNC(=N)N)NC(=O)[C@@H](N)[C@@H](C)O)C(=O)N[C@@H](CCC(N)=O)C(=O)N[C@@H](Cc1c[nH]c2ccccc12)C(=O)N1CCC[C@H]1C(=O)N[C@H](C(=O)NCC(=O)N[C@@H](CCCNC(=N)N)C(=O)N[C@H](C(=O)N[C@@H](Cc1c[nH]cn1)C(=O)N[C@@H](CCCNC(=N)N)C(=O)N[C@@H](CC(C)C)C(=O)N[C@@H](CC(C)C)C(=O)N[C@@H](CCCNC(=N)N)C(=O)N[C@@H](CCCCN)C(=O)O)C(C)C)C(C)C [Buforin II (BF2), reference compound]
[1]
  MIC against E. coli: >18.2 µM

## CC[C@H](C)[C@H](NC(=O)[C@H](CCCNC(=N)N)NC(=O)[C@@H](NC(=O)[C@H](CCCCN)NC(=O)[C@H](CCCCN)NC(=O)[C@H](CC(N)=O)NC(=O)[C@H](CC(=O)O)NC(=O)[C@H](CCCNC(=N)N)NC(=O)[C@H](C)N)[C@@H](C)O)C(=O)N[C@@H](Cc1c[nH]c2ccccc12)C(=O)N1CCC[C@H]1C(=O)N[C@@H](CCCNC(=N)N)C(=O)N[C@@H](Cc1c[nH]cn1)C(=O)N[C@@H](CC(C)C)C(=O)N[C@@H](CCC(N)=O)C(=O)N[C@@H](CC(C)C)C(=O)N[C@@H](C)C(=O)N[C@H](C(=O)N[C@@H](CCCNC(=N)N)C(=O)N[C@@H](CC(N)=O)C(=O)N[C@H](C(=O)N[C@@H](CCCNC(=N)N)C(=O)N[C@@H](CO)C(=O)N[C@@H](CO)C(=O)N[C@@H](CCCNC(=N)N)C(=O)N[C@@H](C)C(=O)NCC(=O)N[C@@H](CC(C)C)C(=O)N[C@@H](CCC(N)=O)C(=O)N[C@@H](Cc1c[nH]c2ccccc12)C(=O)N1CCC[C@H]1C(=O)N[C@H](C(=O)NCC(=O)N[C@@H](CCCNC(=N)N)C(=O)N[C@H](C(=O)N[C@@H](Cc1c[nH]cn1)C(=O)N[C@@H](CCCNC(=N)N)C(=O)N[C@@H](CC(C)C)C(=O)N[C@@H](CC(C)C)C(=O)N[C@@H](CCCNC(=N)N)C(=O)N[C@@H](CCCCN)C(=O)O)C(C)C)C(C)C)[C@@H](C)O)C(C)C [DesHDAP1-BF2 (DB)]
[1]
  MIC against E. coli: 1.1 µM (≈ 5.42 µg/mL)
[2]
  MIC against B. subtilis: 4.6 µM (≈ 22.7 µg/mL)

## CC[C@H](C)[C@H](NC(=O)[C@H](CCCNC(=N)N)NC(=O)[C@@H](NC(=O)[C@H](CCCCN)NC(=O)[C@H](CCCCN)NC(=O)[C@H](CC(N)=O)NC(=O)[C@H](CC(=O)O)NC(=O)[C@H](CCCNC(=N)N)NC(=O)[C@H](C)NC(=O)[C@H](C)NC(=O)[C@H](CCCCN)NC(=O)[C@H](CCCNC(=N)N)NC(=O)[C@H](CC(C)C)NC(=O)[C@H](CC(C)C)NC(=O)[C@H](CCCNC(=N)N)NC(=O)[C@H](Cc1c[nH]cn1)NC(=O)[C@@H](NC(=O)[C@H](CCCNC(=N)N)NC(=O)CNC(=O)[C@@H](NC(=O)[C@@H]1CCCN1C(=O)[C@H](Cc1c[nH]c2ccccc12)NC(=O)[C@H](CCC(N)=O)NC(=O)[C@H](CC(C)C)NC(=O)CNC(=O)[C@H](C)NC(=O)[C@H](CCCNC(=N)N)NC(=O)[C@H](CO)NC(=O)[C@H](CO)NC(=O)[C@H](CCCNC(=N)N)NC(=O)[C@@H](N)[C@@H](C)O)C(C)C)C(C)C)[C@@H](C)O)C(=O)N[C@@H](Cc1c[nH]c2ccccc12)C(=O)N1CCC[C@H]1C(=O)N[C@@H](CCCNC(=N)N)C(=O)N[C@@H](Cc1c[nH]cn1)C(=O)N[C@@H](CC(C)C)C(=O)N[C@@H](CCC(N)=O)C(=O)N[C@@H](CC(C)C)C(=O)N[C@@H](C)C(=O)N[C@H](C(=O)N[C@@H](CCCNC(=N)N)C(=O)N[C@@H](CC(N)=O)C(=O)O)C(C)C [BF2-A-DesHDAP1 (BAD)]
[1]
  MIC against E. coli: 1.1 µM (≈ 5.5 µg/mL)
[2]
  MIC against B. subtilis: 4.6 µM (≈ 23 µg/mL)

## CC[C@H](C)[C@H](NC(=O)[C@H](CCCNC(=N)N)NC(=O)[C@@H](NC(=O)[C@H](CCCCN)NC(=O)[C@H](CCCCN)NC(=O)[C@H](CC(N)=O)NC(=O)[C@H](CC(=O)O)NC(=O)[C@H](CCCNC(=N)N)NC(=O)[C@H](C)NC(=O)[C@H](CCCCN)NC(=O)[C@H](CCCNC(=N)N)NC(=O)[C@H](CC(C)C)NC(=O)[C@H](CC(C)C)NC(=O)[C@H](CCCNC(=N)N)NC(=O)[C@H](Cc1c[nH]cn1)NC(=O)[C@@H](NC(=O)[C@H](CCCNC(=N)N)NC(=O)CNC(=O)[C@@H](NC(=O)[C@@H]1CCCN1C(=O)[C@H](Cc1c[nH]c2ccccc12)NC(=O)[C@H](CCC(N)=O)NC(=O)[C@H](CC(C)C)NC(=O)CNC(=O)[C@H](C)NC(=O)[C@H](CCCNC(=N)N)NC(=O)[C@H](CO)NC(=O)[C@H](CO)NC(=O)[C@H](CCCNC(=N)N)NC(=O)[C@@H](N)[C@@H](C)O)C(C)C)C(C)C)[C@@H](C)O)C(=O)N[C@@H](Cc1c[nH]c2ccccc12)C(=O)N1CCC[C@H]1C(=O)N[C@@H](CCCNC(=N)N)C(=O)N[C@@H](Cc1c[nH]cn1)C(=O)N[C@@H](CC(C)C)C(=O)N[C@@H](CCC(N)=O)C(=O)N[C@@H](CC(C)C)C(=O)N[C@@H](C)C(=O)N[C@H](C(=O)N[C@@H](CCCNC(=N)N)C(=O)N[C@@H](CC(N)=O)C(=O)O)C(C)C [BF2-DesHDAP1 (BD)]
[1]
  MIC against E. coli: 1.1 µM (≈ 5.42 µg/mL)
[2]
  MIC against B. subtilis: 4.6 µM (≈ 22.7 µg/mL)

## CC[C@H](C)[C@H](NC(=O)[C@H](CCCNC(=N)N)NC(=O)[C@@H](NC(=O)[C@H](CCCCN)NC(=O)[C@H](CCCCN)NC(=O)[C@H](CC(N)=O)NC(=O)[C@H](CC(=O)O)NC(=O)[C@H](CCCNC(=N)N)NC(=O)[C@H](C)N)[C@@H](C)O)C(=O)N[C@@H](Cc1c[nH]c2ccccc12)C(=O)N1CCC[C@H]1C(=O)N[C@@H](CCCNC(=N)N)C(=O)N[C@@H](Cc1c[nH]cn1)C(=O)N[C@@H](CC(C)C)C(=O)N[C@@H](CCC(N)=O)C(=O)N[C@@H](CC(C)C)C(=O)N[C@@H](C)C(=O)N[C@H](C(=O)N[C@@H](CCCNC(=N)N)C(=O)N[C@@H](CC(N)=O)C(=O)N1CCC[C@H]1C(=O)N[C@H](C(=O)N[C@@H](CCCNC(=N)N)C(=O)N[C@@H](CO)C(=O)N[C@@H](CO)C(=O)N[C@@H](CCCNC(=N)N)C(=O)N[C@@H](C)C(=O)NCC(=O)N[C@@H](CC(C)C)C(=O)N[C@@H](CCC(N)=O)C(=O)N[C@@H](Cc1c[nH]c2ccccc12)C(=O)N1CCC[C@H]1C(=O)N[C@H](C(=O)NCC(=O)N[C@@H](CCCNC(=N)N)C(=O)N[C@H](C(=O)N[C@@H](Cc1c[nH]cn1)C(=O)N[C@@H](CCCNC(=N)N)C(=O)N[C@@H](CC(C)C)C(=O)N[C@@H](CC(C)C)C(=O)N[C@@H](CCCNC(=N)N)C(=O)N[C@@H](CCCCN)C(=O)O)C(C)C)C(C)C)[C@@H](C)O)C(C)C [DesHDAP1-P-BF2 (DPB)]
[1]
  MIC against E. coli: 1.1 µM (≈ 5.53 µg/mL)
[2]
  MIC against B. subtilis: 4.6 µM (≈ 23.1 µg/mL)
